Measured values from patent US20240381872A1, “SUBSTITUTED 2,3-DIHYDRO[1,3]THIAZOLO[4,5-B]PYRIDINES, SALTS THEREOF AND THEIR USE AS HERBICIDALLY ACTIVE SUBSTANCES” (BAYER AKTIENGESELLSCHAFT, priority 2021, published 2024).

How the values were obtained:
Type in all cases: in vivo
[1] = tested on: Matricaria inodora (MATIN); assay: Herbicidal pre-emergence action, section C (Table C6); conditions: visual grading after ca. 3 weeks
Source text: (§1) Seeds of mono- and dicotyledonous weed plants and crop plants were sown, in plastic or organic planting pots, in sandy loam and covered with soil. The compounds according to the invention, formulated in the form of wettable powders (WP) or as emulsifiable concentrates (EC), were applied to the surface of the covering soil as aqueous suspension or emulsion, with the addition of 0.5% of an additive, at an application rate of 600 l of water/ha (converted). Following treatment, the pots were placed in a greenhouse and kept under optimum growth conditions for the test plants. The visual grading of the damage to the test plants was carried out after ca. 3 weeks in comparison to untreated controls (herbicidal effect in percent (%): 100% effect=plants have died off, 0% effect=as control plants).

Veronica persica (VERPE) = assay: Herbicidal pre-emergence action, section C (Table C10); conditions: visual grading after ca. 3 weeks; for pest or weed control at 320 g/ha: Veronica persica, pre-emergence, 504 h, read-out: pre-emergence activity against VERPE in %
Source text: as §1

[2] = tested on: Alopecurus myosuroides (ALOMY); assay: Herbicidal pre-emergence action, section C (Table C2); conditions: visual grading after ca. 3 weeks vs untreated controls
How it was run: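 Weed and crop seeds sown in sandy loam, covered with soil, then WP or EC formulations sprayed onto the soil surface as aqueous suspension/emulsion with 0.5% additive at 600 l water/ha. Kept in greenhouse under optimum conditions; damage graded visually after ca. 3 weeks versus untreated controls (0% = as control, 100% = plants dead).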

Zea mays (ZEAMX) = assay: Pre-emergence effects on crop plants, section D (Table D1); conditions: visual grading after ca. 3 weeks
How it was run: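 Pre-emergence soil-surface spray, 320 g/ha or below, 600 l water/ha + 0.5% additive; WP/EC formulations; sandy loam; greenhouse; visual % damage vs untreated at ~3 wk.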

[3] = tested on: Echinochloa crus-galli (ECHCG); assay: Herbicidal post-emergence action, section E (Table E5); conditions: visual assessment ca. 3 weeks after spraying
Source text: Seeds of mono- and dicotyledonous weed plants and crop plants were sown, in plastic or organic planting pots, in sandy loam, covered with soil and grown in a greenhouse under controlled growth conditions. 2 to 3 weeks after sowing, the test plants were sprayed in the single-leaf stage. The compounds according to the invention, formulated in form of wettable powders (WP) or as emulsifiable concentrates (EC), were sprayed onto the green plant parts as aqueous suspension or emulsion, with the addition of 0.5% of an additive, at an application rate of 600 l of water/ha (converted). The test plants were placed in the greenhouse for ca. 3 weeks under optimum growth conditions, and then the effect of the preparations was assessed visually in comparison with untreated controls (herbicidal effect in percent (%): 100% effect=plants have died off, 0% effect=as control plants).

Setaria viridis (SETVI) [4] = assay: Herbicidal post-emergence action, section B (Table B8); conditions: application rate 1280 g/ha, visual rating about 3 weeks after treatment vs untreated controls; for pest or weed control at 1280 g/ha: Setaria viridis, post-emergence, 504 h, read-out: post-emergence activity against SETVI in %
How it was run: (§2)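 Activity was scored visually as percent of untreated controls about 3 weeks after spraying, where 100% meant dead plants and 0% meant no difference. Plants were treated at the one-leaf stage with WP or EC formulations in water containing 0.5% additive, applied at 600 liters per hectare.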

[5] = tested on: Amaranthus retroflexus (AMARE); assay: Herbicidal post-emergence action, section B (Table B11); conditions: visual rating about 3 weeks after treatment vs untreated controls; for post-emergence activity against AMARE in % / pest or weed control at 320 g/ha: application rate 320 g/ha
How it was run: as §2

Stellaria media (STEME) = assay: Herbicidal post-emergence action, section B (Table B9); conditions: visual rating about 3 weeks after treatment vs untreated controls
How it was run: as §2

[6] = tested on: Amaranthus retroflexus (AMARE); assay: Herbicidal pre-emergence action, section A (Table A11)
How it was run: (§3)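 Read-out is visual herbicidal effect in percent (100% = plants died, 0% = as control), graded ca. 3 weeks after treatment. Test compounds as WP or EC were applied to covering soil over sown seeds with 0.5% additive, 600 l water per hectare; greenhouse growth.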

Setaria viridis (SETVI) [7] = assay: Herbicidal pre-emergence action, section A (Table A8); conditions: for pest or weed control at 320 g/ha: Setaria viridis, 504 h, read-out: pre-emergence activity against SETVI in %
How it was run: as §3

Poa annua (POAAN) = assay: Herbicidal pre-emergence action, section A (Table A7); conditions: visual grading after ca. 3 weeks vs untreated controls
How it was run: as §3

[8] = Tripleurospermum inodorum, pre-emergence, 504 h, application rate 320 g/ha, read-out: pre-emergence activity against MATIN in %
[9] = Alopecurus myosuroides, pre-emergence, 504 h, application rate 320 g/ha, read-out: pre-emergence activity against ALOMY in %
[10] = Echinochloa crus-galli, 504 h, application rate 320 g/ha, read-out: post-emergence activity against ECHCG in %
[11] = Stellaria media, post-emergence, 504 h, application rate 1280 g/ha, read-out: post-emergence activity against STEME in %
[12] = Amaranthus retroflexus, post-emergence, 504 h, read-out: post-emergence activity against AMARE in %
[13] = Amaranthus retroflexus, 504 h, application rate 320 g/ha, read-out: pre-emergence activity against AMARE in %

| SMILES | pest or weed control at 320 g/ha [1, 8] [%] | pest or weed control at 320 g/ha (Veronica persica (VERPE); application rate 320 g/ha) [%] | pest or weed control at 320 g/ha [2, 9] [%] | pre-emergence activity against ZEAMX in % (crop plant damage) (Zea mays (ZEAMX); application rate 80 g/ha) [%] | pest or weed control at 320 g/ha [3, 10] [%] | pest or weed control at 1280 g/ha (Setaria viridis (SETVI) [4]) [%] | pest or weed control at 320 g/ha (Setaria viridis (SETVI) [7]; application rate 320 g/ha) [%] | pre-emergence activity against MATIN in % ([1]; application rate 320 g/ha) [%] | post-emergence activity against SETVI in % (Setaria viridis (SETVI) [4]) [%] | post-emergence activity against AMARE in % [5] [%] | post-emergence activity against STEME in % (Stellaria media (STEME); application rate 320 g/ha) [%] | pre-emergence activity against ALOMY in % ([2]; application rate 80 g/ha) [%] | post-emergence activity against ECHCG in % ([3]; application rate 320 g/ha) [%] | pre-emergence activity against POAAN in % (Poa annua (POAAN); application rate 320 g/ha) [%] | pre-emergence activity against VERPE in % (Veronica persica (VERPE); application rate 80 g/ha) [%] | pre-emergence activity against AMARE in % ([6]; application rate 320 g/ha) [%] | pre-emergence activity against SETVI in % (Setaria viridis (SETVI) [7]; application rate 320 g/ha) [%] | other results |
| --- | --- | --- | --- | --- | --- | --- | --- | --- | --- | --- | --- | --- | --- | --- | --- | --- | --- | --- |
| Fc1ccccc1-c1nc2c(cc1Br)SCN2 [Example I-001, 6-bromo-5-(2-fluorophenyl)-2,3-dihydro[1,3]thiazolo[4,5-b]pyridine] | 90 | 80 | 100 | 10 | 90 | – | – | – | – | – | – | – | – | – | – | – | – | – |
| Cc1cc2c(nc1-c1ccccc1F)NCS2 [Example I-007, 5-(2-fluorophenyl)-6-methyl-2,3-dihydro[1,3]thiazolo[4,5-b]pyridine] | – | 80 | 100 | – | – | 90 | 100 | – | – | – | – | – | – | – | – | – | – | pest or weed control at 80 g/ha ([1]; Tripleurospermum inodorum, pre-emergence, 504 h, application rate 80 g/ha, read-out: pre-emergence activity against MATIN in %): 80%; pest or weed control at 1280 g/ha ([5]; Amaranthus retroflexus, post-emergence, 504 h, application rate 1280 g/ha, read-out: post-emergence activity against AMARE in %): 90%; pest or weed control at 1280 g/ha (Stellaria media (STEME); [11]): 90%; pest or weed control at 1280 g/ha ([6]; Amaranthus retroflexus, 504 h, application rate 1280 g/ha, read-out: pre-emergence activity against AMARE in %): 90%; pest or weed control at 80 g/ha ([3]; Echinochloa crus-galli, 504 h, application rate 80 g/ha, read-out: post-emergence activity against ECHCG in %): 90%; pest or weed control at 320 g/ha (Poa annua (POAAN); Poa annua, pre-emergence, 504 h, application rate 320 g/ha, read-out: pre-emergence activity against POAAN in %): 100% |
| COC(=O)CCC(=O)N1CSc2cc(C)c(-c3ccccc3F)nc21 [Example I-010] | – | – | – | – | – | – | – | 90 | 90 | 90 | 90 | 90 | 90 | 100 | – | – | – | pre-emergence activity against VERPE in % (Veronica persica (VERPE); application rate 320 g/ha): 90%; pre-emergence activity against AMARE in % ([6]; application rate 1280 g/ha): 100%; pre-emergence activity against SETVI in % (Setaria viridis (SETVI) [7]; application rate 1280 g/ha): 100% |
| Cc1cc2c(nc1-c1cccc(F)c1F)NCS2 [Example I-029, 5-(2,3-difluorophenyl)-6-methyl-2,3-dihydro[1,3]thiazolo[4,5-b]pyridine] | 80 | 80 | – | – | 80 | 90 | 100 | – | – | – | – | – | – | – | – | – | – | pest or weed control at 320 g/ha [5, 12]: 90%; pest or weed control at 320 g/ha (Stellaria media (STEME); Stellaria media, post-emergence, 504 h, application rate 320 g/ha, read-out: post-emergence activity against STEME in %): 90%; pest or weed control at 320 g/ha [6, 13]: 90%; pest or weed control at 80 g/ha ([2]; Alopecurus myosuroides, pre-emergence, 504 h, application rate 80 g/ha, read-out: pre-emergence activity against ALOMY in %): 100%; pest or weed control at 1280 g/ha (Poa annua (POAAN); Poa annua, pre-emergence, 504 h, application rate 1280 g/ha, read-out: pre-emergence activity against POAAN in %): 100% |
| Cc1cc2c(nc1-c1ccccc1Cl)NCS2 [Example I-049, 5-(2-chlorophenyl)-6-methyl-2,3-dihydro[1,3]thiazolo[4,5-b]pyridine] | 80 | 80 | 100 | 10 | 80 | – | – | – | – | – | – | – | – | – | – | – | – | – |
| Cc1cc2c(nc1-c1ccccc1F)N(C(=O)C1(C)CC(Cl)=NO1)CS2 (stereo not drawn) [Example I-083] | – | – | – | 10 | – | – | – | 90 | 90 | 90 | 90 | 90 | – | – | 80 | 100 | 100 | post-emergence activity against ECHCG in % ([3]; application rate 80 g/ha): 80%; pre-emergence activity against POAAN in % (Poa annua (POAAN); application rate 1280 g/ha): 100% |
| Cc1cc2c(nc1-c1ccccc1F)N(S(=O)(=O)Cc1ccc(F)cc1)CS2 [Example I-122] | – | – | – | – | – | – | – | 80 | 90 | 90 | – | – | 90 | 100 | – | 90 | 100 | pre-emergence activity against VERPE in % (Veronica persica (VERPE); application rate 320 g/ha): 80%; post-emergence activity against STEME in % (Stellaria media (STEME); application rate 1280 g/ha): 90%; pre-emergence activity against ALOMY in % ([2]; application rate 320 g/ha): 100%; pre-emergence activity against ZEAMX in % (crop plant damage) (Zea mays (ZEAMX); application rate 320 g/ha): 0% |
| CCOCCS(=O)(=O)N1C[S+]([O-])c2cc(C)c(-c3ccccc3F)nc21 (stereo not drawn) [Example I-127] | 90 | 90 | – | 20 | 90 | 90 | 100 | – | – | – | – | – | – | – | – | – | – | pest or weed control at 320 g/ha [5, 12]: 90%; pest or weed control at 1280 g/ha (Stellaria media (STEME); [11]): 90%; pest or weed control at 320 g/ha [6, 13]: 90% |
| COCC1(C(=O)N2CSc3cc(C)c(-c4ccccc4F)nc32)CC(Cl)=NO1 (stereo not drawn) [Example I-128] | – | – | – | 0 | – | – | – | – | 90 | 90 | 90 | 90 | 90 | 100 | 80 | 90 | 100 | pre-emergence activity against MATIN in % ([1]; application rate 80 g/ha): 80% |
| Cc1ccccc1-c1nc2c(cc1C)SCN2C(=O)C1(C)CC(Cl)=NO1 (stereo not drawn) [Example I-137] | – | – | – | 20 | – | – | – | 90 | 90 | 90 | – | 80 | 90 | 100 | 80 | 100 | 100 | post-emergence activity against STEME in % (Stellaria media (STEME); application rate 1280 g/ha): 90% |
